14 molecules from patent US8466145B2, “Dipeptidyl peptidase IV inhibitors” (Orchid Chemicals & Pharmaceuticals Limited, priority 2009, dated 2013) can be followed below.

A value given as a limit tells only on which side of the number the result lay.

One data set has as its target T1, DPP-IV (Homo sapiens, UniProt P27487).
T1 construct: from tissue; host or cells: human plasma (per the earlier reading of the assay)
Nature of the data set: DPP-IV inhibition, compounds screened by using human plasma. Format: biochemical. As to conditions: screened by using human plasma (starred examples); for inhibition at 0.3 µM: 300 nM compound concentration.

The target in data set [1] is T2, human recombinant Dipeptidyl peptidase IV enzyme (hrDPP IV) (Homo sapiens, UniProt P27487).
T2 construct: purchased R&D systems
T2 sequence (P27487 whole entry): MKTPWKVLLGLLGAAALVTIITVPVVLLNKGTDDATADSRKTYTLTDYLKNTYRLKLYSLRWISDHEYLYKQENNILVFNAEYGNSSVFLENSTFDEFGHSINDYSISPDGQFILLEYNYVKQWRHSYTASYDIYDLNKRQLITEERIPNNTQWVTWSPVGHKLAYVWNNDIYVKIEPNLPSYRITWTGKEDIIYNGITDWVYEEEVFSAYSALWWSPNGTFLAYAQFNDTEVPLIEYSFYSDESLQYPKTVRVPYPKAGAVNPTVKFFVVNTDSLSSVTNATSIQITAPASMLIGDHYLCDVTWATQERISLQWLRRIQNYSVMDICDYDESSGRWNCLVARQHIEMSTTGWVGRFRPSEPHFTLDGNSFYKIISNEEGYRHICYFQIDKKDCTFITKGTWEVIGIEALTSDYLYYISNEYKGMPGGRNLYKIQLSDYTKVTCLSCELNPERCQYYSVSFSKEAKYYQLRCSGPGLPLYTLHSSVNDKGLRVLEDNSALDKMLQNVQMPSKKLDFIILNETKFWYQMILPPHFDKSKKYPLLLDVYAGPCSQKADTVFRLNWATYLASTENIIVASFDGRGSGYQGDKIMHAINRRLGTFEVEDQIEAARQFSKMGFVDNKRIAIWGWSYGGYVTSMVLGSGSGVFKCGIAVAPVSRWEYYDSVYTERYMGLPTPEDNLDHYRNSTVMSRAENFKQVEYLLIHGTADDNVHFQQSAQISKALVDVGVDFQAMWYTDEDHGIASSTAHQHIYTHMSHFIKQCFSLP
Nature of the data set: DPP IV assay, cleavage of H-Gly-Pro-AMC by human recombinant DPP-IV enzyme. Format: biochemical. The procedure, abridged:
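Human recombinant DPP-IV (3 ng) preincubated 60 min at room temperature with compound in 25 mM HEPES, 140 mM NaCl, 1% BSA, pH 7.8, in duplicate. Reaction with H-Gly-Pro-AMC (10 μL of 100 μM) for 20 min, stopped with acetic acid; AMC fluorescence 360/460 nm, IC50 from percent inhibition.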

In data set [2] the target is T3, human recombinant Dipeptidyl peptidase 9 enzyme (hrDPP 9) (Homo sapiens, UniProt Q86TI2).
T3 construct: purchased R&D systems
T3 sequence (Q86TI2 whole entry): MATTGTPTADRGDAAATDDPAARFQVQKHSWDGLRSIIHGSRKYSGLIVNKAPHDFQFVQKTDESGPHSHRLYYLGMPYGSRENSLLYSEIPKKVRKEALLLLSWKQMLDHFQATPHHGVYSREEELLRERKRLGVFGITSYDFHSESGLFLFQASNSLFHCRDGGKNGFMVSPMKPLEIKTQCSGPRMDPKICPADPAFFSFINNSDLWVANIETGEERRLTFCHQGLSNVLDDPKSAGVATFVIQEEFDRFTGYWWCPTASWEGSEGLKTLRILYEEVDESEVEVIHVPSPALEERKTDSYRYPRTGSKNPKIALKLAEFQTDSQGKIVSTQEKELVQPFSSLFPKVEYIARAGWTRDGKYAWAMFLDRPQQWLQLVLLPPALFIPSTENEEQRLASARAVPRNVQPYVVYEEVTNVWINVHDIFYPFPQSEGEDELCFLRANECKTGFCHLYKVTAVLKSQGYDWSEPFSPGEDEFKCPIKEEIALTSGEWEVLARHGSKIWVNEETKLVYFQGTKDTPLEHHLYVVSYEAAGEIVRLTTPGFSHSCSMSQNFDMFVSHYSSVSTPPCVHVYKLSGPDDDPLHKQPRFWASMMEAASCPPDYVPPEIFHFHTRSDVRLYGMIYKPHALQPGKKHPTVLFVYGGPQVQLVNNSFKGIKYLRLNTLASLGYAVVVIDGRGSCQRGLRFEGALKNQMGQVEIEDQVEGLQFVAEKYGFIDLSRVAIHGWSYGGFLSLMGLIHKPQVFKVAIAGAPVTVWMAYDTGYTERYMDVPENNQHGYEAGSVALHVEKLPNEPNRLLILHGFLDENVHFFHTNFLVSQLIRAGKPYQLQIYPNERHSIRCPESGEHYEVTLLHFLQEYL
Nature of the data set: DPP 9 assay, cleavage of H-Gly-Pro-AMC. Format: biochemical. As to conditions: selectivity for DPP-IV over DPP 9. The protocol:
DPP 9 activity was determined by the cleavage rate of 7-amino 4-methylcoumarin (AMC) from the substrate H-Gly-Pro-AMC. In brief, the assay was conducted by adding 10 ng of human recombinant Dipeptidyl peptidase 9 enzyme (hrDPP 9, available commercially from R&D systems) in 70 μL of the assay buffer (50 mM TRIS and 5 mM EDTA, pH 7.7) to a 96 well black flat bottom microtitre plate. Test compound was added as 10 μL additions to all wells except blank and total activity wells. After incubation of test substance with enzyme for 30 minutes at room temperature, 10 μL of 100 μM substrate H-Gly-Pro-AMC was added. After mixing, the plate was left for 30 minutes at room temperature. Then the reaction was terminated by addition of 10 μL of 25% Glacial Acetic Acid. Fluorescence was measured using Spectra Max Gemini XS (Molecular Devices, USA) at an excitation filter of 360 nm and emission filter of 460 nm.
Test compound dissolved in DMSO were diluted with assay buffer at different concentrations and tested in duplicates. Percentage inhibition was calculated with respect to total activity. IC50 value was calculated by using Prism Software.

The subject of another data set is C57BL/6 mice. Nature of the data set: Oral glucose tolerance test. Format: in vivo. As to conditions: compound 10 mg/kg; for Antihyperglycemic activity, reduction in AUC (blood glucose), Time 0.50 hr: glucose 2 g/kg challenge 0.50 hr after compound administration; for Antihyperglycemic activity, reduction in AUC (blood glucose), Time 6.00 hr: glucose 2 g/kg challenge 6.00 hr after compound administration, NA = No activity. The protocol:
Effect of compound on glucose tolerance was examined in 7 week old C57BL/6 mice. Animals were kept for 18 h fasting and were challenged with glucose (2 g/kg) 30 min after compound (10 mg/kg) administration. Blood samples for glucose measurement were obtained by tail bleed pre dose and at serial time points after the glucose load (30, 60 and 120 minutes). Blood glucose estimation was done by using ContourTS active strips on glucometer (Bayer). To find the time response on glucose excursion, animals were challenged with glucose at different time point after compound administration (0.5, 2, 4, 6, 8, 12 or 24 hours) at blood glucose was measured at pre (0 minute) and post (30, 60 and 120 minutes) glucose load.
Results of blood glucose were expressed as area under curve (AUC) was calculated using Prism software.

In data set [3] the target is T4, human recombinant Dipeptidyl peptidase 8 enzyme (hrDPP 8) (Homo sapiens, UniProt Q6V1X1).
T4 construct: purchased R&D systems
T4 sequence (Q6V1X1 whole entry): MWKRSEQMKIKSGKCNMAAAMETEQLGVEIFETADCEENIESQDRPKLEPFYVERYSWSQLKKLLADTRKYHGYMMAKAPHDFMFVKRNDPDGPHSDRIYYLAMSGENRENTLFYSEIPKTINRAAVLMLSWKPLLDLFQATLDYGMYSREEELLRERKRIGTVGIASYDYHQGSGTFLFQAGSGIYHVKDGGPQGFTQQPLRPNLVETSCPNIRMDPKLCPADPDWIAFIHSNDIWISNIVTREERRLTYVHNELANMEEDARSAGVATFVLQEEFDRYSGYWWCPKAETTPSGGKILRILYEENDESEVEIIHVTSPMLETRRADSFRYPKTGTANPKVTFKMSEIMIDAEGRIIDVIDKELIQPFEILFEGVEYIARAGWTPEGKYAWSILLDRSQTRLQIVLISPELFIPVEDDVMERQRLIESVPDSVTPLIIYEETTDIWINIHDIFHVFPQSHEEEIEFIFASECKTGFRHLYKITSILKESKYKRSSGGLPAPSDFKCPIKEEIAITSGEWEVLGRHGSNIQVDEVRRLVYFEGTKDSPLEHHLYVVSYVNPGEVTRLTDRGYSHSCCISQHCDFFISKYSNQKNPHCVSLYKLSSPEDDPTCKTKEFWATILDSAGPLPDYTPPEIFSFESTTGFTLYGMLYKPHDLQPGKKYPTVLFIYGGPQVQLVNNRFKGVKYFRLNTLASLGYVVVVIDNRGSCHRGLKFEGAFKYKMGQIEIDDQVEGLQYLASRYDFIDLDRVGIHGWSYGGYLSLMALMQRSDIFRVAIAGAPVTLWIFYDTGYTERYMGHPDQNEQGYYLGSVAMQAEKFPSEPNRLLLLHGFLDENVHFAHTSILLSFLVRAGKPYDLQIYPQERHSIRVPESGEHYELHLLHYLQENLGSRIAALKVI
Nature of the data set: DPP 8 assay, cleavage of H-Ala-Pro-AFC. It counts as biochemical. As to conditions: selectivity for DPP-IV over DPP 8. The protocol: DPP 8 activity was determined by the cleavage rate of 7-amino 4-fluoromethylcoumarin (AFC) from the substrate H-Ala-Pro-AFC. In brief, the assay was conducted by adding 30 ng of human recombinant Dipeptidyl peptidase 8 enzyme (hrDPP 8, available commercially from R&D systems) in 70 μL of the assay buffer (50 mM TRIS and 5 mM EDTA, pH 7.7) to a 96 well black flat bottom microtitre plate. Test compound was added as 10 μL additions to all wells except blank and total activity wells. After incubation of test substance with enzyme for 30 minutes at room temperature, 10 μL of 100 μM substrate H-Ala-Pro-AFC was added. After mixing, the plate was left for 30 minutes at room temperature. Then the reaction was terminated by addition of 10 μL of 25% Glacial Acetic Acid. Fluorescence was measured using Spectra Max Gemini XS (Molecular Devices, USA) at an excitation filter of 400 nm and emission filter of 505 nm.
Test compound dissolved in DMSO were diluted with assay buffer at different concentrations and tested in duplicates. Percentage inhibition was calculated with respect to total activity. IC50 value was calculated using Prism Software.

T1 sequence (P27487 39-766 limits assumed): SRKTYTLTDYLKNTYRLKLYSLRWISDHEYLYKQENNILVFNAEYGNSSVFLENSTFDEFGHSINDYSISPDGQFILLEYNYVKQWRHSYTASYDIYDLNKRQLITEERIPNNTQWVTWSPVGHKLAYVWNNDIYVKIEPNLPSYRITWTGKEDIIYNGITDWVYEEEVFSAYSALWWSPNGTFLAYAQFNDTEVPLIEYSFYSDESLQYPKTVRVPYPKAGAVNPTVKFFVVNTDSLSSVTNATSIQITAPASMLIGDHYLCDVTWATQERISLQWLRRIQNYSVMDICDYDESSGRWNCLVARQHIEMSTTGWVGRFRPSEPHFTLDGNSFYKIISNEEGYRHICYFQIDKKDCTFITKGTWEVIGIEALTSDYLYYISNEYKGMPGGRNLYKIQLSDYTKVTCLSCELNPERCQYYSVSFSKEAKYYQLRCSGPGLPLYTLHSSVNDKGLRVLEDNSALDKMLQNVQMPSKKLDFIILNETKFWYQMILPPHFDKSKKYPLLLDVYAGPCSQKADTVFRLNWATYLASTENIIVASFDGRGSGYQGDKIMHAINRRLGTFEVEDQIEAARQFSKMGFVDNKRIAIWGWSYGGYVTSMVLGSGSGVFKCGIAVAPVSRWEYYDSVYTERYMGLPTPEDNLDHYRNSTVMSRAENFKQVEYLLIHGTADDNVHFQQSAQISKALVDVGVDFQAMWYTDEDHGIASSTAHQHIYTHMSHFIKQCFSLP

As a reminder, the inhibition is the change of the read-out against control, counted positive when it falls. As a reminder, the melting point is the temperature of the solid-liquid transition. Molecule `CN1C[C@]2(C)CC[C@](NCC(=O)N3C[C@H](F)C[C@H]3C#N)(C1)C2(C)C` [Example 77, (2S,4R)-4-Fluoro-1-(2-((1R,5R)-3,5,8,8-tetramethyl-3-azabicyclo[3.2.1]octan-1-ylamino)acetyl)pyrrolidine-2-carbonitrile] registered a melting point of 74 to 79 °C. Moreover, the inhibition at 0.3 µM on DPP-IV amounted to 13.4%.
For the molecule `CC1(C)[C@@H](NCC(=O)N2CCC[C@H]2C#N)CC[C@@]1(C)c1nc(-c2ccc(F)cc2)no1` [Example 66, (S)-1-(2-((1S,3R)-3-(3-(4-Fluorophenyl)-1,2,4-oxadiazol-5-yl)-2,2,3-trimethylcyclopentylamino)acetyl)pyrrolidine-2-carbonitrile methanesulfonate], at 0.3 µM the inhibition against DPP-IV was 23.2%.
In general, IC50 refers to the concentration that gives 50% inhibition. Molecule `CC1(C)[C@H](CN2CCCS2(=O)=O)CC[C@]1(C)NCC(=O)N1C[C@@H](F)C[C@H]1C#N` [Example 29, (2S,4S)-1-(2-((1S,3R)-3-[(1,1-Dioxidoisothiazolidin-2-yl)methyl]-1,2,2-trimethyleyclopentylamino)acetyl)-4-fluoropyrrolidine-2-carbonitrile] gave a melting point of 171 to 174 °C. In data set [1], the IC50 came out at 7.61 nM. The “Selectivity (Fold) DPP 9” value in data set [2] is given as >1100 Fold. In addition, in the data set with C57BL/6 mice, the “Antihyperglycemic activity, reduction in AUC (blood glucose), Time 0.50 hr” value is listed as 42.52% and the “Antihyperglycemic activity, reduction in AUC (blood glucose), Time 6.00 hr” value was found to be 20.21%. Further, the “Selectivity (Fold) DPP 8” value in data set [3] is >13000 Fold.
`CC1(C)[C@H](CN2CCOCC2)CC[C@]1(C)NCC(=O)N1C[C@@H](F)C[C@H]1C#N` [Example 34, (2S,4S)-4-Fluoro-1-(2-((1S,3R)-1,2,2-trimethyl-3-(morpholinomethyl)cyclopentylamino)acetyl)pyrrolidine-2-carbonitrile] displayed a melting point of 163 to 166 °C. The IC50 in data set [1] was found to be 8.94 nM. The “Selectivity (Fold) DPP 9” value in data set [2] was >1500 Fold. In the data set with C57BL/6 mice, the “Antihyperglycemic activity, reduction in AUC (blood glucose), Time 0.50 hr” value was 54.32%. The “Selectivity (Fold) DPP 8” value in data set [3] is given as >10000 Fold.
Regarding `CC1(C)[C@@H](c2nc(-c3ccc(F)cc3)no2)CC[C@@]1(C)NCC(=O)N1C[C@@H](F)C[C@H]1C#N` [Example 48, (2S,4S)-4-Fluoro-1-(2-((1R,3S)-3-(3-(4-fluorophenyl)-1,2,4-oxadiazol-5-yl)-1,2,2-trimethyleyclopentylamino)acetyl)pyrrolidine-2-carbonitrile], the inhibition at 0.3 µM against DPP-IV was determined as 4.46%.
Turning to `CC1(C)[C@H](c2nc(-c3ccc(F)cc3)no2)CC[C@]1(C)NCC(=O)N1C[C@@H](F)C[C@H]1C#N` [Example 49, (2S,4S)-4-Fluoro-1-(2-((1S,3R)-3-(3-(4-fluorophenyl)-1,2,4-oxadiazol-5-yl)-1,2,2-trimethylcyclopentylamino)acetyl)pyrrolidine-2-carbonitrile], the melting point lay within 160 to 163 °C. The same molecule showed a half-inhibitory concentration (IC50) against DPP-IV of 422 nM.
The molecule `CC1(C)[C@@H](NCC(=O)N2C[C@@H](F)C[C@H]2C#N)CC[C@@]1(C)c1nc(-c2ccc(F)cc2)no1` [Example 65, (2S,4S)-4-Fluoro-1-(2-((1S,3R)-3-(3-(4-fluorophenyl)-1,2,4-oxadiazol-5-yl)-2,2,3-trimethylcyclopentylamino)acetyl)pyrrolidine-2-carbonitrile] displayed an IC50 at DPP-IV of 238 nM.
Take `CC1(C)[C@H](Cn2cncn2)CC[C@]1(C)NCC(=O)N1C[C@H](F)C[C@H]1C#N` [Example 5, (2S,4R)-1-(2-((1S,3R)-3-((1H-1,2,4-Triazol-1-yl)methyl)-1,2,2-trimethylcyclopentylamino)acetyl)-4-fluoropyrrolidine-2-carbonitrilemethanesulfonate]: on DPP-IV, the inhibition at 0.3 µM worked out at 4.1%.
`CC1(C)[C@H](Cn2cnnn2)CC[C@]1(C)NCC(=O)N1C[C@@H](F)C[C@H]1C#N` [Example 32, (2S,4S)-1-(2-((1S,3R)-3-((1H-Tetrazol-1-yl)methyl)-1,2,2-trimethylcyclopentylamino)acetyl)-4-fluoropyrrolidine-2-carbonitrile] registered a melting point of 151 to 154 °C. Moreover, in data set [1], the IC50 was 6.01 nM. Moreover, the “Selectivity (Fold) DPP 9” value in data set [2] is >1900 Fold. Besides, in the data set on C57BL/6 mice, the “Antihyperglycemic activity, reduction in AUC (blood glucose), Time 0.50 hr” value is recorded as 17.80%. Further, the “Selectivity (Fold) DPP 8” value in data set [3] is >9500 Fold.
At DPP-IV, `CC1(C)[C@@H](Cn2cncn2)CC[C@@]1(C)NCC(=O)N1C[C@H](F)C[C@H]1C#N` [Example 2, (2S,4R)-1-(2-((1R,3S)-3-((1H-1,2,4-Triazol-1-yl)methyl)-1,2,2-trimethylcyclopentylamino)acetyl)-4-fluoropyrrolidine-2-carbonitrilemethane sulfonate] registered an inhibition at 0.3 µM of 10.5%.
For `CC1(C)[C@H](Cc2noc(CO)n2)CC[C@]1(C)NCC(=O)N1C[C@@H](F)C[C@H]1C#N` [Example 60, (2S,4S)-4-Fluoro-1-(2-((1S,3S)-3-((5-(hydroxymethyl)-1,2,4-oxadiazol-3-yl)methyl)-1,2,2-trimethylcyclopentylamino)acetyl)pyrrolidine-2-carbonitrile], the melting point lay within 147 to 149 °C. Besides, the IC50 in data set [1] is 6.59 nM. Also, the inhibition at 0.3 µM in data set [1] (300 nM compound concentration) stood at 94.7%. For the same molecule, the “Selectivity (Fold) DPP 9” value in data set [2] is on record as >7000 Fold. Besides, in the data set with C57BL/6 mice, the “Antihyperglycemic activity, reduction in AUC (blood glucose), Time 0.50 hr” value was 47.70% and the “Antihyperglycemic activity, reduction in AUC (blood glucose), Time 6.00 hr” value stood at 51.55%. In addition, in the data set with C57BL/6 mice (glucose 2 g/kg challenge 12.00 hr after compound administration), the “Antihyperglycemic activity, reduction in AUC (blood glucose), Time 12.00 hr” value came to 29.62%. Besides, in data set [3], the “Selectivity (Fold) DPP 8” value is >19000 Fold.
For the molecule `CC1(C)[C@H](Cn2cncn2)CC[C@]1(C)NCC(=O)N1C[C@@H](F)C[C@H]1C#N` [Example 3, (2S,4S)-1-(2-((1S,3R)-3-((1H-1,2,4-Triazol-1-yl)methyl)-1,2,2-trimethylcyclopentylamino)acetyl)-4-fluoropyrrolidine-2-carbonitrile], the melting point lay within 132 to 135 °C. The concentration for half-maximal inhibition (IC50) in data set [1] was 11 ± 0.16 nM. Also, the “Selectivity (Fold) DPP 9” value in data set [2] is recorded as >5000 Fold. Moreover, in the data set on C57BL/6 mice, the “Antihyperglycemic activity, reduction in AUC (blood glucose), Time 0.50 hr” value is 53.89%. In addition, the “Selectivity (Fold) DPP 8” value in data set [3] is listed as >27000 Fold.
Molecule `CC1(C)[C@H](CS(=O)(=O)c2ccc(S(C)(=O)=O)cc2)CC[C@]1(C)NCC(=O)N1C[C@H](F)C[C@H]1C#N` [Example 47, (2S,4R)-4-Fluoro-1-(2-((1S,3R)-1,2,2-trimethyl-3-((4-(methylsulfonyl)phenylsulfonyl)methyl)cyclopentylamino)acetyl)pyrrolidine-2-carbonitrile] returned a melting point of 172 to 175 °C. The same molecule registered an inhibition at 0.3 µM at DPP-IV of 13.5%.
In the case of `CC1(C)[C@@H](CNC(=O)c2ccccc2F)CC[C@@]1(C)NCC(=O)N1C[C@@H](F)C[C@H]1C#N` [Example 21, N-(((1S,3R)-3-(2-((2S,4S)-2-Cyano-4-fluoropyrrolidin-1-yl)-2-oxoethylamino)-2,2,3-trimethylcyclopentyl)methyl)-2-fluorobenzamide], the melting point fell in the range of 123 to 127 °C. The molecule also came in with an IC50 at DPP-IV of 330 nM.
